Measured values from patent US10633635B2, “Methods for production of functional beta cells” (Janssen Biotech, Inc., priority 2016, dated 2020).
Entries after “also recorded” stand apart in the source; their conditions may differ. Counter-ions that a name gives are not always drawn.

Test system: MAFA
Assay: Small molecule screen: qRT-PCR of MAFA expression at Stage 7 in H1-hESC-derived ALI clusters
Assay type: cell-based, human
Settings: 2 μM small molecule added at Stage 7; S7D7 ALI clusters; quantitative real-time PCR; FIGS. 1A-1D
Procedure: (§1) The following example is directed to identification of small molecules that can enhance the maturation status of a pancreatic beta cell, via increasing the gene expression of mature beta cell markers including MAFA (v-maf avian musculoaponeurotic fibrosarcoma oncogene homolog A) or UCN3 (urocortin 3). […] Y-compound was added to only during the first 24 hours post-seeding.
(§2) For FIGS. 1A to 1H the cultures were differentiated using the following protocol.
(§3) In general, the embodiments herein differentiate human pluripotent cells substantially as described above in Stages 1-7. For Stage 7, various small molecules were added and their effect was evaluated by quantitative real-time PCR. These small molecules were evaluated and 2 μM of each was added at Stage7.
(§4) Primer details are outlined in Table III.

| Molecule | expression of MAFA as compared to S6D7, or untreated or DMSO treated cultures at Stage 7 |
| --- | --- |
| CCn1c(-c2nonc2N)nc2cncc(CNC3CCNCC3)c21 [SB747651A dihydrochloride] | significantly upregulated |
| COc1cc2c(NC3CCN(C(C)C)CC3)nc(N3CCC(F)(F)CC3)nc2cc1OCCCN1CCCC1 [UNC0642] | significantly upregulated |
| COc1cc2c(NC3CCN(C(C)C)CC3)nc(C3CCCCC3)nc2cc1OCCCN1CCCC1 [UNC0638] | significantly upregulated |
| Cc1cc(/N=N/c2ccc(S(=O)(=O)Nc3ccccn3)cc2)c(N)cc1O [MS436] | significantly upregulated |
| COc1cc2c(NC3CCN(C4CCCCC4)CC3)nc(N3CCCN(C(C)C)CC3)nc2cc1OCCCN1CCCCC1 [UNC0646] | significantly upregulated |
| COc1cc2c(Nc3ccc(NC(=O)c4ccccc4)cc3)ncnc2cc1OCCCN1CCOCC1 [ZM447439] | significantly upregulated |
| CC(=O)NCC(=O)N1[C@@H]2CC[C@H]1c1ccc(Nc3ncc(C(F)(F)F)c(NC4CCC4)n3)cc12 [PF03814735] | significantly upregulated |
| O=c1cc(N2CCNCC2)oc2c(-c3ccccc3)cccc12 [LY303511] | significantly upregulated |
| COc1ccccc1S(=O)(=O)Nc1ccc2c(c1)CN(C)C(=O)N2 [PFI1] | significantly upregulated |
| Cn1c(/C=C/C(=O)NO)ccc1/C=C/C(=O)c1cccc(F)c1 [MC1568] | significantly upregulated |
| COc1cc2c(cc1OCCCN1CCCC1)N=C(N)C21CCC1 [A366] | significantly upregulated |
| O=C(CCl)Nc1ccc(S(=O)(=O)c2ccc(NC(=O)CCl)cc2)cc1 [TC-E5003] | significantly upregulated |

Test system: MAFA
Assay: as above
Assay type: cell-based, human
Settings: Stage 7 no ALK5, low T3, ZM, H, NAC, FI, BLAR001; 5 μM AZT; 1 μM or 10 μM DEZA; S7D7 ALI clusters; FIG. 2A

| Molecule | MAFA up-regulation during Stage 7 |
| --- | --- |
| Nc1nccc2c1ncn2[C@@H]1C=C(CO)[C@@H](O)[C@H]1O [3-Deazaneplanocin A] | effective up-regulator of MAFA |

Test system: human islets
Assay: Glucose-stimulated insulin secretion (perifusion, C-PEPTIDE ELISA)
Assay type: cell-based
Settings: 16.7 mM D-glucose ± 100 ng/ml Exendin-4, FIG. 8D
Procedure: For quantification of glucose-dependent insulin secretion, Stage 7 ALI clusters, Aggrewell™ clusters and matured human islets were characterized by a cell perifusion system (BioRep Technologies, Miami, Fla., Catalog No. PERI4-02). Briefly, to normalize insulin secretion to a baseline, ALI/Aggrewell™ clusters or human islets were transferred into warm (37° C.) Kreb's Buffer (Table IX). Cells were loaded into perifusion chambers (BioRep Technologies, Catalog No. PERI-CHAMBER), and were continuously perfused (flow rate of 100 μl/min) with […] sequential Kreb's buffers supplemented with either: (i) 3 mM D-glucose; (ii) 16.7 mM D-glucose±100 ng/ml Exendin-4 (“Ex4”); and (iii) 25 mM KCl with 3 mM D-glucose. Specific perifusion protocols are indicated in each figure. Perfusate samples were collected every minute, and C-PEPTIDE protein levels (units in ng/ml) detected by a C-PEPTIDE ELISA (Mercodia, Uppsala, Sweden, Catalog No. 10-1136-01).

| Molecule | amplitude of the GSIS response |
| --- | --- |
| Exendin-4: insulin secretagogue, 100 ng/ml in perifusion buffer (Sigma-Aldrich E7144) | did not increase the amplitude of the GSIS response |

Test system: MAFA or UCN3
Assay: Small molecule screen at Stage 7: induction of MAFA or UCN3 expression
Assay type: cell-based, human
Settings: Stage 7 at 20 mM D-glucose plus BME Vitamin supplement; 79 small molecules of Table XI
Procedure: as §1, §2
as §3, with “PCR. […]” for “PCR.”
as §4

| Molecule | expression of the MAFA or UCN3 |
| --- | --- |
| Cc1cc(Nc2ccc(NC(=O)c3ccc(Nc4ccnc5ccccc45)cc3)cc2)nc(N)n1 [SGI 1027] | induced expression |
| O=c1ncccn1[C@@H]1O[C@H](CO)[C@@H](O)[C@H]1O [Zebularine] | induced expression |
| Nc1ncn([C@@H]2O[C@H](CO)[C@@H](O)[C@H]2O)c(=O)n1 [5-Azacytidine] | induced expression |
| CC1=NN(c2ccc(C(=O)O)cc2)C(=O)C1=Cc1ccc(-c2cc(C)c(C)cc2[N+](=O)[O-])o1 [C646] | induced expression |
| Nc1nc(OCc2cc(Br)cs2)c2[nH]cnc2n1 [Lomeguatrib] | induced expression |
| CC(C)N(CCCNC(=O)Nc1ccc(C(C)(C)C)cc1)C[C@H]1O[C@@H](n2cc(Br)c3c(N)ncnc32)[C@H](O)[C@@H]1O [SGC0946] | induced expression |
| O=C(O[C@@H]1Cc2c(O)cc(O)cc2O[C@@H]1c1cc(O)c(O)c(O)c1)c1cc(O)c(O)c(O)c1 [EGCG] | induced expression |
| Cn1nnc2c(C(N)=O)ncn2c1=O [Temozolomide] | induced expression |
| O=c1c(O)c(-c2ccc(O)c(O)c2)oc2cc(O)ccc12 [Fisetin] | induced expression |
| COc1ccc(S(=O)(=O)ON=C2C=C(C)C(=O)C(C)=C2)cc1 [L002] | induced expression |
| O=C1c2c(O)ccc(O)c2C(=O)c2c(NCCNCCO)ccc(NCCNCCO)c21 [Mitoxantrone dihydrochloride] | induced expression |

Test system: INHBB
Assay: not given
Settings: S7D7 ALI clusters; 10 μM ALK5 inhibitor II in Stage 7; FIG. 3A

| Molecule | INHBB expression relative to human islets |
| --- | --- |
| Cc1cccc(-c2n[nH]cc2-c2ccc3ncccc3n2)n1 [ALK5 inhibitor II, 2-(3-(6-Methylpyridin-2-yl)-1H-pyrazol-4-yl)-1,5-naphthyridine] | enriched above the expression seen in human islets |

Test system: UCN3
Assay: Small molecule screen: qRT-PCR of UCN3 expression at Stage 7 in H1-hESC-derived ALI clusters
Assay type: cell-based, human
Settings: 2 μM small molecule added at Stage 7; S7D7 ALI clusters; quantitative real-time PCR; FIGS. 1E-1H
Procedure: as §1, §2, §3, §4

| Molecule | expression of UCN3 as compared to S6D7, or untreated or DMSO treated cultures at Stage 7 |
| --- | --- |
| Nc1ncn([C@@H]2O[C@H](CO)[C@@H](O)[C@H]2O)c(=O)n1 [5-Azacytidine] | significantly upregulated; also recorded: increased |
| CC(=O)Nc1ccc(C(=O)Nc2ccccc2N)cc1 [CI994] | significantly upregulated; also recorded: increased |
| O=C(CCCCCCC(=O)Nc1cccnc1)NO [Pyroxamide] | significantly upregulated; also recorded: increased |

Same assay, conditions: Stage 7 no ALK5, low T3, ZM, H, NAC, FI, BLAR001; 5 μM AZT; 1 μM or 10 μM DEZA; S7D7 ALI clusters; FIG. 2B

| Molecule | UCN3 up-regulation during Stage 7 |
| --- | --- |
| Nc1nccc2c1ncn2[C@@H]1C=C(CO)[C@@H](O)[C@H]1O [3-Deazaneplanocin A] | but not UCN3 |
| Nc1ncn([C@@H]2O[C@H](CO)[C@@H](O)[C@H]2O)c(=O)n1 [5-Azacytidine] | up-regulator |
